Among the data in patent US20030220402A1, “Cancer remedy comprising anthranilic acid derivatives as active ingredients” (priority 2000, published 2003) are LD50 values, retold here.

For this assay, the system named is L929 cells. Put plainly: Measurement of cytotoxicity using mouse tumorous cells L929 (Neutral Red assay). The class given is cell-based. The conditions noted are these: 3 days culture, concentration manifesting 50% cytotoxicity. As for the experimental part: Measurement of Cytotoxicity Using Mouse Tumorous Cells L929
The cytotoxic activity against tumorous cells was measured according to a Neutral Red assay method [the method described in Journal of Tissue Culture Methodology, vol. 9, p. […] 24, p. […] Namely, 100 μL each of L929 cells (5×10^4 cells/mL, 10% FCS/RPM1) was added to a 96-well ELISA plate, and the cells were cultured overnight. The test compound at each measuring concentration was dissolved in a DMSO solution and added, and culturing was further continued for 3 days. To the cultured cells, was then added 2.0 μL of Neutral Red so as to provide the final concentration of 0.01%. Incubation was conducted at 37° C. for 1 hour, and the cell culture supernatant was removed. The resultant cultured cells were washed with […] of PBS twice to remove the excessive Neutral Red. To the washed cells, was then added 100 μL of a 50% ethanol-1% aqueous acetic acid. The dye incorporated in the cells was extracted, and the amount of the dye was determined by measuring the absorbance at 490 nm. The case where a drug was not added was taken as 100%, and the cytotoxicity was determined at the concentrations of the respective test compounds. […] The measurements under the same conditions in two sets each were made, and the data were, obtained from the average values.
As to `O=C(Cc1ccc(Oc2ccc(OCc3ccccc3)cc2)cc1)Nc1ccccc1C(=O)O` [Compound No. 316, 2-(4-(4-benzyloxyphenoxy)phenylacetamido)benzoic acid], the LD50 is 0.60 µM.

`O=C(Cc1ccc(Oc2ccc3ccccc3c2)cc1)Nc1ccccc1C(=O)O` [Compound No. 59, 2-(4-(2-naphthyloxy)phenylacetamido)benzoic acid] yielded an LD50 of 1.6 µM.

As for `COC(=O)c1ccccc1NC(=O)Cc1ccc(Oc2ccc(O)cc2)cc1` [Compound No. 296, methyl 2-(4-(4-hydroxyphenoxy)phenylacetamido)benzoate], the LD50 was >5 µM.

For `O=C(Cc1ccc(Oc2ccc(OC3CCCCC3)cc2)cc1)Nc1ccccc1C(=O)O` [compound 288, 2-(4-(4-cyclohexyloxyphenoxy)phenylacetamido)benzoic acid], the LD50 turned out to be 0.20 µM.
